From patent US20100160356A1, “NOVEL CYCLOBUTYL COMPOUNDS AS KINASE INHIBITORS” (priority 2006, published 2010)
pIC50: −log10 of the molar value. Counter-ions that a name gives are not always drawn.

Assays:
PDGFRβ = PDGFRβ (Homo sapiens, UniProt P09619); experiment: Inhibition of PDGFRβ (flashplate assay); format: biochemical; conditions: flashplate method
Protocol: (§1) The test plates used are 96-well flashplate microtitre plates from Perkin Elmer (USA). The components of the kinase reaction are pipetted into the assay plate. The PDGFRβ kinase is incubated for 3 hr. with radioactively labelled ^33P-ATP in the presence and absence of test substances in a total volume of 100 μl at room temperature (here autophosphorylation of the kinase). The reaction is terminated using 150 μl of a 60 mM EDTA solution. After incubation for a further 30 min at room temperature, the supernatants are removed by suction, and the wells are washed three times with 200 μl of 0.9% NaCl solution each time. The radioactivity is measured using a Topcount scintillation counter (PerkinElmer, USA). IC50 values are calculated using the RS1 computer program.

[1] = biological target: T1, FAK (focal adhesion kinase) (Homo sapiens, UniProt Q05397); experiment: Inhibition of FAK (ELISA assay), FAK phosphorylation in cells; format: cell-based; conditions: human cells with FAK amplification
T1 construct: endogenous in cells; host or cells: Calu-6 or HT-29
T1 sequence (Q05397 whole entry): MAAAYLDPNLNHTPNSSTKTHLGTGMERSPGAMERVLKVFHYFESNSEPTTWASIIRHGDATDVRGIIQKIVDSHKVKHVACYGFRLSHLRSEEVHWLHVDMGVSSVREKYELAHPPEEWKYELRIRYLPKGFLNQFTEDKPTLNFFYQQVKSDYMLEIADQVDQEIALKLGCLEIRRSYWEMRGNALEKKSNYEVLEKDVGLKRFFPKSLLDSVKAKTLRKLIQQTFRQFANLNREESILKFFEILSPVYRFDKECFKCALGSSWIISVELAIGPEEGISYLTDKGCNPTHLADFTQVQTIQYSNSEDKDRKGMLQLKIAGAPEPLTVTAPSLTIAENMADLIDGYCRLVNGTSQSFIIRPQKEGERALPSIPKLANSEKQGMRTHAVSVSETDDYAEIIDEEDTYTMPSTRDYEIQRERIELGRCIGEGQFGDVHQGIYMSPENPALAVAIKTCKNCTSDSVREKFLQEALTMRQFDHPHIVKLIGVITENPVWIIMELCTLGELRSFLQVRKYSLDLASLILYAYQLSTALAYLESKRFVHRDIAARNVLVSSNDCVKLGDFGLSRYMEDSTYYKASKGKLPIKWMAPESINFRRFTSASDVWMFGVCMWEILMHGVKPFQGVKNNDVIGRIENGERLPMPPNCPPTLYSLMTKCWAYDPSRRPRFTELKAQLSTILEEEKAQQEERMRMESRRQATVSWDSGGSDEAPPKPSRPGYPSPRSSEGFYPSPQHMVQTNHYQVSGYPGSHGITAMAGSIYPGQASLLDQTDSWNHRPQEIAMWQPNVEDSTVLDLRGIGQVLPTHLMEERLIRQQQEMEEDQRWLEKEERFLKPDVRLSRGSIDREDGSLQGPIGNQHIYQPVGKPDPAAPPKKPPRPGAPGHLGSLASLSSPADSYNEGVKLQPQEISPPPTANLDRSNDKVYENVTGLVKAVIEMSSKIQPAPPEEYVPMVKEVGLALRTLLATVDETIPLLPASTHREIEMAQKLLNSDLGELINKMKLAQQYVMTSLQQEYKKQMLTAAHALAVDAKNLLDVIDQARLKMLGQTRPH
Protocol: Activated FAK promotes the invasive growth of tumour cells and inhibits anoikis.
The amount of phosphorylated FAK is determined by a specific capture ELISA or an analogous LUMINEX assay. FAK from cell lysates is bound to a 96-well ELISA plate or LUMINEX beads by means of a specific antibody (“capturing”), and the tyrosine phosphorylation is detected using a biotin-labelled anti-phosphotyrosine antibody and a streptavidin-peroxidase conjugate by a chemiluminescence method or by means of a fluorescence-labelled anti-phosphotyrosine antibody.
For determination of the activity of kinase inhibitors, cells are pretreated with increasing concentrations of these compounds for 45 min, and the FAK phosphorylation is then determined. As internal control, a concentration series of a reference inhibitor is measured.

VEGF-2 = VEGF-2 (Homo sapiens, UniProt P35968); experiment: Inhibition of VEGF-2 (flashplate assay); format: biochemical; conditions: flashplate method
Sequence of VEGF-2 (P35968 20-1356): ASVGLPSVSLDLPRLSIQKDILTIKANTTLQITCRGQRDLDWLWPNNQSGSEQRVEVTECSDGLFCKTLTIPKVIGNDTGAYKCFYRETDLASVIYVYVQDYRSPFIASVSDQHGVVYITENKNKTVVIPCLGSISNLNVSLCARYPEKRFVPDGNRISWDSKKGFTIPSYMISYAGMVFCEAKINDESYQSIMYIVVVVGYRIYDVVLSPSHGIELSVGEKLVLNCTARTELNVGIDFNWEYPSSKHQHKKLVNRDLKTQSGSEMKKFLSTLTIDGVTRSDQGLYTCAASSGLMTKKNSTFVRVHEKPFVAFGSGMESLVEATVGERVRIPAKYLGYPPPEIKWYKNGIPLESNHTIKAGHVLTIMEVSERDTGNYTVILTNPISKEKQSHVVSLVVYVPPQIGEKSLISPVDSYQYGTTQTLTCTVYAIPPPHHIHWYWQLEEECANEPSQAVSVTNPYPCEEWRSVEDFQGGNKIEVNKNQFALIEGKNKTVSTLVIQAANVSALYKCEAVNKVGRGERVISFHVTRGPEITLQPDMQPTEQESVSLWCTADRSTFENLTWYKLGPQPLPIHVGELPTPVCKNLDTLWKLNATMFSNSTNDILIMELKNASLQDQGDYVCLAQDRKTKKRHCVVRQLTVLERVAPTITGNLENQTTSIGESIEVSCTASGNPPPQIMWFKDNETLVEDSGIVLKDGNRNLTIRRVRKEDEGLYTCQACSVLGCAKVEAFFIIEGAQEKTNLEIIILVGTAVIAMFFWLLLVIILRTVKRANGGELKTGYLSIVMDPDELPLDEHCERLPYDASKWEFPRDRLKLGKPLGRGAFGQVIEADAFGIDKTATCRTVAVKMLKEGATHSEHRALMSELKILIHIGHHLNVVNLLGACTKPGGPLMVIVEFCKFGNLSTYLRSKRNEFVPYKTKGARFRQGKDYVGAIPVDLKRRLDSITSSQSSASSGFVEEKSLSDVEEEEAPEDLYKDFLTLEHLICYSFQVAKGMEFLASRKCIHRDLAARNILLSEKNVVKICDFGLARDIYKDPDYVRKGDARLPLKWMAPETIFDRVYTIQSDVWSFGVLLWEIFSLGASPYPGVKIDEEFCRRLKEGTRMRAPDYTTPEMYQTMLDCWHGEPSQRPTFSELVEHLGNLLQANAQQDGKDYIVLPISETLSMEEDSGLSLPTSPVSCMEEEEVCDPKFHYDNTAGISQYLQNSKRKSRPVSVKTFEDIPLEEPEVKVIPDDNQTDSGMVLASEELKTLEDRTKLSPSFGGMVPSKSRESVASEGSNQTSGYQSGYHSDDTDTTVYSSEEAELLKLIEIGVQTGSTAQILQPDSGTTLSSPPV
Protocol: as §1, with “384-well” for “96-well”, “VEGF-2” for “PDGFRβ”, “together with biotinylated poly(Glu, Tyr)4:1.” for “(here autophosphorylation of the kinase).”, “25” for “150”, “200” for “60”, “100” for “200”

TGFβR1 = biological target: T2, TGFβR1 (Homo sapiens, UniProt P36897); experiment: Inhibition of TGFβR1 (flashplate assay); format: biochemical; conditions: flashplate method
T2 sequence (P36897 34-503): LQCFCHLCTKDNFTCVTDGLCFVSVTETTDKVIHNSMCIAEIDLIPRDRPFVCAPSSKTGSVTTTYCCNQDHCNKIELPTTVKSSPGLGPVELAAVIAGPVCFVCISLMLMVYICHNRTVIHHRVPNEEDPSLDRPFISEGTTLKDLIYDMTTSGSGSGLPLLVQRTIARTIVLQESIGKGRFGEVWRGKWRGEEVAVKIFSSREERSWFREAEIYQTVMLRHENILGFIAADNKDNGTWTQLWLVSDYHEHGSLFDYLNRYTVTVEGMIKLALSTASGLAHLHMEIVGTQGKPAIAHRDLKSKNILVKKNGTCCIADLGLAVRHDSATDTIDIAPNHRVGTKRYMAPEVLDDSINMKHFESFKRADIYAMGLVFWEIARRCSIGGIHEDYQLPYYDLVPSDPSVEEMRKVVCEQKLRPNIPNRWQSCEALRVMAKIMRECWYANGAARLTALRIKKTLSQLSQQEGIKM
Protocol: The test is carried out as described in Example B1b for IGF1R. A biotinylated is added to the TGFβR1 kinase.
The kinase assay is carried out as a 384-well flashplate assay.
The components of the kinase reaction are pipetted into the assay plate. The TGFβR1 kinase is incubated for 45 min with radioactively labelled ^33P-ATP in the presence and absence of test substances together with biotinylated substrate in a total volume of 35 μl. The reaction is terminated using 25 μl of 200 mM EDTA solution, removed by suction after 30 min at room temperature, and the wells are washed with three times with 100 μl of 0.9% NaCl solution each time. The radioactivity is measured using a Topcount scintillation counter (PerkinElmer, USA). IC50 values are calculated using the RS1 computer program.

IGF1 receptor (IGF1R) = biological target: T3, IGF1 receptor (IGF1R) (Homo sapiens, UniProt P08069); experiment: Inhibition of IGF1R (ELISA assay), IGF1-stimulated autophosphorylation in cells; format: cell-based; conditions: human tumour cells stimulated with IGF1, read-out: IC50 IGF (ELISA)
T3 construct: endogenous in cells; host or cells: MCF-7 or Calu-6
T3 sequence (P08069 31-1367): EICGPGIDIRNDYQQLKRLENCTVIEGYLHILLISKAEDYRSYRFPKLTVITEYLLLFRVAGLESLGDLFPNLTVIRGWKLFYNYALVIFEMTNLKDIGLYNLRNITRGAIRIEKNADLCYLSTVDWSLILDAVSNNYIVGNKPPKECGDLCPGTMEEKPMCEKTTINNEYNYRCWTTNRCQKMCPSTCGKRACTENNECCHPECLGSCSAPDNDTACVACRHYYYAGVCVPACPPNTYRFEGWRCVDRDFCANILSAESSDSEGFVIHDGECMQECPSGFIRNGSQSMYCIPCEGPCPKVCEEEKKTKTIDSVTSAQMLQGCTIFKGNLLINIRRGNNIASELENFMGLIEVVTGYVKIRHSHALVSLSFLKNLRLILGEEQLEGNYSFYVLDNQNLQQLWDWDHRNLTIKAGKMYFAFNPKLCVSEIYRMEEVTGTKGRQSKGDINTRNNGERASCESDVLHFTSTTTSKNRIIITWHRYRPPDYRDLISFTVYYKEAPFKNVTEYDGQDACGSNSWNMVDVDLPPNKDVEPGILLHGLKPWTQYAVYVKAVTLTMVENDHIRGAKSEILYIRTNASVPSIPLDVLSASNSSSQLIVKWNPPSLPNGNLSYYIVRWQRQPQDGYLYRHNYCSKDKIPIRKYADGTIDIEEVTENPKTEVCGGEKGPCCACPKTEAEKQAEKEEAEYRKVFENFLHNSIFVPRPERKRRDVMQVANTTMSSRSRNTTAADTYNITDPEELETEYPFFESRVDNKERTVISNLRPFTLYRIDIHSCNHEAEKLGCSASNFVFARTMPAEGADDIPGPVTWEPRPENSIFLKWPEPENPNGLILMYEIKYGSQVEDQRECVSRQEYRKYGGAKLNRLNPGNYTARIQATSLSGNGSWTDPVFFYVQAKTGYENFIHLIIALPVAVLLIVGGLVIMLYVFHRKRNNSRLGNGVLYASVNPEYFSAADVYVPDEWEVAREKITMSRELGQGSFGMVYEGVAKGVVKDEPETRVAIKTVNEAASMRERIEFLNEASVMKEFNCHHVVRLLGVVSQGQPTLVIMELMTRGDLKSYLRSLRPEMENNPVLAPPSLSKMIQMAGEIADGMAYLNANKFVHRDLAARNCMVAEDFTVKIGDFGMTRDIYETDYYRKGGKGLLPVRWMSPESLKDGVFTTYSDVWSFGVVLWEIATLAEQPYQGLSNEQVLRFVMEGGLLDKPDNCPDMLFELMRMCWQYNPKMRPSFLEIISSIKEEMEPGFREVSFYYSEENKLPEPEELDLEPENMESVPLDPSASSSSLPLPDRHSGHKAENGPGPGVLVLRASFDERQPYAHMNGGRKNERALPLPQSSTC
Protocol: The stimulation induces an autophosphorylation of tyrosine residues in the cytoplasmatic IGF1R domain, which triggers signal transduction cascades, which result in inhibition of apoptosis and proliferation of the cells.
The amount of phosphorylated IGF1R is determined by a receptor-specific capture ELISA or an analogous LUMINEX assay. The IGF1R from cell lysates is bound to a 96-well ELISA plate or LUMINEX beads by means of a specific antibody (“capturing”), and the tyrosine phosphorylation is detected using a biotin-labelled anti-phosphotyrosine antibody and a streptavidin-peroxidase conjugate by a chemiluminescence method or by means of a fluorescence-labelled anti-phosphotyrosine antibody.
For determination of the activity of kinase inhibitors, cells are pretreated with increasing concentrations of these compounds for 45 min and subsequently stimulated using IGF1 for 5 min. As internal control, the biological activity of the ligand IGF1 is checked, and a concentration series of an IGF1R reference inhibitor is measured.

TIE2 = TIE2 (Homo sapiens, UniProt Q02763); experiment: Inhibition of TIE2 (flashplate assay); format: biochemical; conditions: flashplate method
Protocol: B4: inhibition of T1E2 (Flashplate Assay)
as §1, with “384-well” for “96-well”, “TIE2” for “PDGFRβ”, “together with biotinylated poly(Glu, Tyr)4:1.” for “(here autophosphorylation of the kinase).”, “25” for “150”, “200” for “60”, “100” for “200”

IGF1R = IGF1R (Homo sapiens, UniProt P08069); experiment: Inhibition of IGF1R (flashplate assay); format: biochemical; conditions: flashplate method
Sequence of IGF1R (P08069 31-1367, species assumed): as the sequence (P08069 31-1367) above
Protocol: as §1, with “The IGF1R” for “The PDGFRβ”, “for 1” for “for 3”, “temperature together with biotinylated poly(Glu, Tyr)4:1.” for “temperature (here autophosphorylation of the kinase).”, “using 25” for “using 150”, “a 200” for “a 60”, “with 100” for “with 200”

Sequence of PDGFRβ (P09619 33-1106, species assumed): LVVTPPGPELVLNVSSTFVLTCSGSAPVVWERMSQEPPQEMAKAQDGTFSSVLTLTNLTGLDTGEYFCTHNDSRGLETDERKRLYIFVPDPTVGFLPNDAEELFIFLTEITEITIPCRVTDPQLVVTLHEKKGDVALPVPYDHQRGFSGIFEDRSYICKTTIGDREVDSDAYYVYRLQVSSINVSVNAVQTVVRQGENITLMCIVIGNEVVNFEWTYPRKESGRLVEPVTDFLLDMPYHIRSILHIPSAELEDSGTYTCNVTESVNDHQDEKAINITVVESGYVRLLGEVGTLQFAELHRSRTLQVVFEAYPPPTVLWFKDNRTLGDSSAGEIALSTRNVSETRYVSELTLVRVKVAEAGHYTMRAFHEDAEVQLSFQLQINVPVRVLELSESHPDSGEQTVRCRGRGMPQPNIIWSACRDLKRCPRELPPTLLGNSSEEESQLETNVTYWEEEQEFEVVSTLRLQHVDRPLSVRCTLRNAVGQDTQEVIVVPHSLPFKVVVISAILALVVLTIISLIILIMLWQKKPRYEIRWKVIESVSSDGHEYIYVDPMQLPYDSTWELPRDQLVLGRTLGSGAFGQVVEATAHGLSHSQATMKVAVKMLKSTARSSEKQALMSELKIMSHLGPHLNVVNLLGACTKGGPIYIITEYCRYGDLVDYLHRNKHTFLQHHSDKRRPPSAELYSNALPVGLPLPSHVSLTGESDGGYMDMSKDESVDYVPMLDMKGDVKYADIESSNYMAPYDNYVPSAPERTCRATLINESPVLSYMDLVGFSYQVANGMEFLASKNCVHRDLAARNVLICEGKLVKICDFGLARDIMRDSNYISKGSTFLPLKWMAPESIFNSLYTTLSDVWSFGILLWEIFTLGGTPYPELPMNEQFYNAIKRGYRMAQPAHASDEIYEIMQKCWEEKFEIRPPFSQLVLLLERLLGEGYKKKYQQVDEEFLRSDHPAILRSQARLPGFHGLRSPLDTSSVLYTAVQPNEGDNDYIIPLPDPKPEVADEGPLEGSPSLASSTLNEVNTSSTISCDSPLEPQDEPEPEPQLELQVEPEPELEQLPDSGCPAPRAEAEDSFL

SMILES	melting point	pIC50 [1]	pIC50 (TGFβR1)	pIC50 (IGF1 receptor (IGF1R))	other results
NCC1CC(n2cc(I)c3c(N)ncnc32)C1 (stereo not shown) (as salt: HCl) [Compound 52]	241 to 242.5 °C				
C[Si](C)(COc1cccc(-c2cn(C3CC(CN)C3)c3ncnc(N)c23)c1)c1ccccc1 (stereo not shown) (as salt: TFA) [Compound 8]	172 to 174.5 °C				
C[Si](C)(C)COc1cccc(-c2cn(C3CC(CN)C3)c3ncnc(N)c23)c1 (stereo not shown) (as salt: TFA) [Compound 9]	83 to 84 °C				
NCC1CC(n2cc(-c3cc4ccccc4o3)c3c(N)ncnc32)C1 (stereo not shown) (as salt: TFA) [Compound 37]	202.5 to 204.5 °C				
NCC1CC(n2cc(-c3ccco3)c3c(N)ncnc32)C1 (stereo not shown) (as salt: TFA) [Compound 38]	207.5 to 209 °C				
NCC1CC(n2cc(-c3cccs3)c3c(N)ncnc32)C1 (stereo not shown) (as salt: TFA) [Compound 41]	206 to 207.5 °C				
NCC1CC(n2cc(-c3ccncc3)c3c(N)ncnc32)C1 (stereo not shown) (as salt: TFA) [Compound 43]	> 195 °C (dec.)				
N#Cc1cccc(-c2cn(C3CC(CN)C3)c3ncnc(N)c23)c1 (stereo not shown) (as salt: TFA) [Compound 57]	186.5 to 189 °C				
CS(=O)(=O)Nc1cccc(-c2cn(C3CC(CN)C3)c3ncnc(N)c23)c1 (stereo not shown) [Compound 13]	82 to 84 °C	4.55			pIC50 (PDGFRβ): 5.24; pIC50 (VEGF-2): 5.19
CC(C)c1cccc(-c2cn(C3CC(CN)C3)c3ncnc(N)c23)c1 (stereo not shown) [Compound 16]	93 to 94.5 °C	4.55	5.82	4.66	
NCC1CC(n2cc(-c3cccc(C(F)(F)F)c3)c3c(N)ncnc32)C1 (stereo not shown) [Compound 17]		4.60	5.57		
NCC1CC(n2cc(-c3cccc(OC(F)(F)F)c3)c3c(N)ncnc32)C1 (stereo not shown) [Compound 18]	88 to 90 °C	4.76	6.00	4.66	
NCC1CC(n2cc(-c3cccc([N+](=O)[O-])c3)c3c(N)ncnc32)C1 (stereo not shown) [Compound 20]	53 to 55 °C	5.40	6.15		
CC(=O)Nc1cccc(-c2cn(C3CC(CN)C3)c3ncnc(N)c23)c1 (stereo not shown) [Compound 21]		4.77	5.19		
CN(Cc1ccccc1)c1cccc(-c2cn(C3CC(CN)C3)c3ncnc(N)c23)c1 (stereo not shown) [Compound 26]	197 to 200 °C		5.96	4.96	pIC50 (VEGF-2): 5.57
NCC1CC(n2cc(-c3ccc4c(c3)n(Cc3ccccc3)c(=O)n4Cc3ccccc3)c3c(N)ncnc32)C1 (stereo not shown) [Compound 33]	72.5 to 74 °C	4.57		4.70	pIC50 (PDGFRβ): 5.16; pIC50 (TIE2): 6.43
NCC1CC(n2cc(-c3ccncc3)c3c(N)ncnc32)C1 (stereo not shown) [Compound 43]			6.82	4.57	
NCC1CC(n2cc(-c3cccnc3)c3c(N)ncnc32)C1 (stereo not shown) [Compound 44]			6.02	4.89	
NCC1CC(n2cc(-c3ccc4c(c3)OCCO4)c3c(N)ncnc32)C1 (stereo not shown) [Compound 53]	324 to 325.5 °C	5.72	5.80	5.28	pIC50 (PDGFRβ): 5.96; pIC50 (TIE2): 5.70; pIC50 (VEGF-2): 5.85
Nc1ncnc2c1c(-c1ccc3c(c1)OCCO3)cn2C1CC(CN2CCCC2)C1 (stereo not shown) [Compound 54]		4.55			
NCC1CC(n2cc(-c3ccc4ccn(Cc5ccccc5)c4c3)c3c(N)ncnc32)C1 (stereo not shown) [Compound 55]		4.62		5.46	pIC50 (TIE2): 6.17; pIC50 (VEGF-2): 6.72; pIC50 (IGF1R): 5.80
N#Cc1cccc(-c2cn(C3CC(CN)C3)c3ncnc(N)c23)c1 (stereo not shown) [Compound 57]		4.60	5.21		
N#Cc1ccc(-c2cn(C3CC(CN)C3)c3ncnc(N)c23)cc1N (stereo not shown) [Compound 58]			5.96		pIC50 (PDGFRβ): 6.37; pIC50 (VEGF-2): 6.21
N#Cc1ccc(-c2cn(C3CC(CN)C3)c3ncnc(N)c23)cc1F (stereo not shown) [Compound 59]		5.39	5.08		pIC50 (PDGFRβ): 6.21
NCC1CC(n2cc(-c3cccc(C(N)=O)c3)c3c(N)ncnc32)C1 (stereo not shown) [Compound 60]			6.28		
NCC1CC(n2cc(-c3cccc(N(CCCCO)Cc4ccccc4)c3)c3c(N)ncnc32)C1 (stereo not shown) [Compound 61]					pIC50 (TIE2): 5.41
NCC1CC(n2cc(-c3ccc4occc4c3)c3c(N)ncnc32)C1 (stereo not shown) [Compound 63]	156 to 159 °C	6.20	7.26		pIC50 (PDGFRβ): 6.51; pIC50 (TIE2): 5.74; pIC50 (VEGF-2): 6.54
NCC1CC(n2cc(-c3cccc4occc34)c3c(N)ncnc32)C1 (stereo not shown) [Compound 65]		6.38	7.35		pIC50 (PDGFRβ): 6.03; pIC50 (TIE2): 5.54; pIC50 (VEGF-2): 5.88
NCC1CC(n2cc(-c3cnc4ccccc4c3)c3c(N)ncnc32)C1 (stereo not shown) [Compound 69]		5.10	7.41	4.60	
NCC1CC(n2cc(C(Cl)=CCOCc3ccccc3)c3c(N)ncnc32)C1 (stereo not shown) [Compound 71]			5.26	4.68	
